The results in this text go back to patent US20220227792A1, “CARBORANE HYDROXAMIC ACID MATRIX METALLOPROTEINASE AGENTS FOR BORON NEUTRON CAPTURE THERAPY” (LOYOLA UNIVERSITY OF CHICAGO, priority 2019, published 2022).

One assay concerns the target T1, MMP-2 (Homo sapiens, UniProt P08253).
T1 sequence (P08253 110-660): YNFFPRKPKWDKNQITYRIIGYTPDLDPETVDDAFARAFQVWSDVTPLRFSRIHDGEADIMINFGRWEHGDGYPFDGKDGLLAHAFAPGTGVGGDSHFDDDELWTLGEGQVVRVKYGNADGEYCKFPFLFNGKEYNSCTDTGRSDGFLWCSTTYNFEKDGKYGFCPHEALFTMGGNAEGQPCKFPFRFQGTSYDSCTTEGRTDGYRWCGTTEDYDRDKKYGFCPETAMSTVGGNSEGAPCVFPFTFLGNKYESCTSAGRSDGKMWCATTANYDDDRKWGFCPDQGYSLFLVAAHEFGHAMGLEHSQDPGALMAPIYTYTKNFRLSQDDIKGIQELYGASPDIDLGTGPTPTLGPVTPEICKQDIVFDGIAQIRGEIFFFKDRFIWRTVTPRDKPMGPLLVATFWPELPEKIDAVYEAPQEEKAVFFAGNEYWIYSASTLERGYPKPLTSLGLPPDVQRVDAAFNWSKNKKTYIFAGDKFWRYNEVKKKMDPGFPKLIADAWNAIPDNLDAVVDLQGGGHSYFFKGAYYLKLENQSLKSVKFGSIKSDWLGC
The assay is described as follows: MMP inhibition FRET assay, MMP-2. Type of assay: biochemical. The note with it: 390 MMP FRET Substrate I, room temperature, 30 minutes, duplicate; read-out: IC50 MMP2. As for the experimental part:
(§1) Serial dilutions of a compound were prepared with 10% DMSO and 5 μL of the dilution was added to a 50 μL reaction so that the final concentration of DMSO is 1% in all of reactions.
(§2) The enzymes were diluted in 50 mM HEPES buffer pH 7.4, 10 mM CaCl2, 0.05% Brij-35, and 1 mM APMA for activation at 37° C. for 2 hours.
(§3) […] activity assays were performed in duplicate at each concentration. The fluorescent intensity data were analyzed using the computer software, Graphpad Prism. In the absence of the compound, the fluorescent intensity (Ft) in each data set was defined as 100% activity. In the absence of enzyme, the fluorescent intensity (Fb) in each data set was defined as 0% activity. The percent activity in the presence of each compound was calculated according to the following equation: %activity=(F−Fb)/(Ft−Fb), where F=the fluorescent intensity in the presence of the compound.
(§4) The values of % activity versus a series of compound concentrations were then plotted using non-linear regression analysis of Sigmoidal dose-response curve generated with the equation Y=B+(T−B)/1+10^((Log EC50−X)×Hill Slope), where Y=percent activity, B=minimum percent activity, T=maximum percent activity, X=logarithm of compound and Hill Slope=slope factor or Hill coefficient. The IC50 value was determined by the concentration causing a half-maximal percent activity.

The target of a further assay is MMP9 (Q279R) (Homo sapiens, UniProt P14780, Q279R). Kind of assay: MMP inhibition FRET assay, MMP-9. Type of assay: biochemical. The note with it: 390 MMP FRET Substrate I, room temperature, 30 minutes, duplicate. The method, then: as §1, §2, §3, §4
Chain of MMP9 (Q279R) (P14780 107-707 Q279R limits assumed): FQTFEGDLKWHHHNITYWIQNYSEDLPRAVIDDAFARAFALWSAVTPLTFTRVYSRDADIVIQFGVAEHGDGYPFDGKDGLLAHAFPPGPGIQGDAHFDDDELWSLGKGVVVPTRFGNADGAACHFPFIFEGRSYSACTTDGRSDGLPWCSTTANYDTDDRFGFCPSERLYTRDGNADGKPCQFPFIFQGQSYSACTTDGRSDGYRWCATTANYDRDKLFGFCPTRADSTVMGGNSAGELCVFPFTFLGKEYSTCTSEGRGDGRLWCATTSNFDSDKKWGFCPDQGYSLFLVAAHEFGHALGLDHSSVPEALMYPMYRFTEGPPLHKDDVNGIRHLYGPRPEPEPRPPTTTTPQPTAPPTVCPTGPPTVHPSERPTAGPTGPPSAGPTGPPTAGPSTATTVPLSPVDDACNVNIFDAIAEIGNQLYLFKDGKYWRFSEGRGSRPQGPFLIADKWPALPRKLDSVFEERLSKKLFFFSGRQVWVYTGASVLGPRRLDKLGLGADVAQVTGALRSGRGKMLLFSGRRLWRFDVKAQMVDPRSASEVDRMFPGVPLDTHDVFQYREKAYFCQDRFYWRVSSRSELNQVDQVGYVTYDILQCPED

As a reminder, the IC50 is the concentration that gives 50% inhibition. For `COc1ccc(S(=O)(=O)N(CC(=O)NO)CC(C)C)cc1` [NNGH, N-Isobutyl-N-(4-methoxyphenylsulfonyl)glycyl Hydroxamic Acid], the IC50 at MMP-2 and against MMP9 (Q279R) was 4 nM each time.
